In BindingDB's records for doi:10.1016/j.bmcl.2005.07.039 (Universit&#233, 2005):

These compounds were tested against Sigma non-opioid intracellular receptor 1 (Cavia porcellus) (UniProt Q60492) (assay: Inhibitory activity against Opioid receptor sigma 1 in guinea pig cerebral cortex using [3H](+)-pentazocine as radio ligand at pH 7.5 for 150 min at 22 C).
Chain of Sigma non-opioid intracellular receptor 1 (Cavia porcellus) (Q60492 whole entry, looked up): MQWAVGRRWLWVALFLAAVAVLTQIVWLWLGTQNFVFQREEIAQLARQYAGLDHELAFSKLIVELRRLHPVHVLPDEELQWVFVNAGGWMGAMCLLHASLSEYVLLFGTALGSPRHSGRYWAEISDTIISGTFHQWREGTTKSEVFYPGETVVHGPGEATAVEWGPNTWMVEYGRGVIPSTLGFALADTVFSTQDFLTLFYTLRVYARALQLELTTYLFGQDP

Compound `CN(CCCCCCn1c(O)c2n(c1=O)Cc1ccccc1C2)CCc1ccccc1` [(S)-2-[6-(Methyl-phenethyl-amino)-hexyl]-10,10a-dihydro-5H-imidazo[1,5-b]isoquinoline-1,3-dione] has an IC50 of 29.5 nM.

These compounds were tested against Sigma non-opioid intracellular receptor 1 (Cavia porcellus) (UniProt Q60492) (assay: Inhibitory activity against opioid receptor sigma 1 in guinea pig cerebral cortex using [3H](+)-pentazocine as radio ligand at pH 7.5 for 150 min at 22 degree C).

Point of comparison: `CN(CCCCc1ccccc1)CCn1c(O)c2n(c1=O)Cc1ccccc1C2` [(S)-2-{2-[Methyl-(4-phenyl-butyl)-amino]-ethyl}-10,10a-dihydro-5H-imidazo[1,5-b]isoquinoline-1,3-dione], IC50 3.2 nM. Against it:
- CC(C)NC(=O)CN1CCN(CCn2c(O)c3n(c2=O)Cc2ccccc2C3)CC1 [2-{4-[2-((S)-1,3-Dioxo-1,5,10,10a-tetrahydro-imidazo[1,5-b]isoquinolin-2-yl)-ethyl]-piperazin-1-yl}-N-isopropyl-acetamide] — higher, > 100 nM
- O=c1n(CCCNCc2ccccc2)c(O)c2n1Cc1ccccc1C2 [(S)-2-(3-Benzylamino-propyl)-10,10a-dihydro-5H-imidazo[1,5-b]isoquinoline-1,3-dione] — 3-fold higher, 9.6 nM
- CN1CCN(CCn2c(O)c3n(c2=O)Cc2ccccc2C3)CC1 [(S)-2-[2-(4-Methyl-piperazin-1-yl)-ethyl]-10,10a-dihydro-5H-imidazo[1,5-b]isoquinoline-1,3-dione] — higher, > 100 nM
- CN(CCn1c(O)c2n(c1=O)Cc1ccccc1C2)Cc1ccccc1 [(S)-2-[2-(Benzyl-methyl-amino)-ethyl]-10,10a-dihydro-5H-imidazo[1,5-b]isoquinoline-1,3-dione] — within 1.5-fold, 4.5 nM
- CN(CCc1ccccc1)CCn1c(O)c2n(c1=O)Cc1ccccc1C2 [(S)-2-[2-(Methyl-phenethyl-amino)-ethyl]-10,10a-dihydro-5H-imidazo[1,5-b]isoquinoline-1,3-dione] — 3.9-fold higher, 12.6 nM
- O=c1n(CCCNC2CCN(Cc3ccccc3)CC2)c(O)c2n1Cc1ccccc1C2 [(S)-2-[3-(1-Benzyl-piperidin-4-ylamino)-propyl]-10,10a-dihydro-5H-imidazo[1,5-b]isoquinoline-1,3-dione] — 26-fold higher, 82.3 nM
- O=c1n(CCCN2CCN(Cc3ccc4c(c3)OCO4)CC2)c(O)c2n1Cc1ccccc1C2 [(S)-2-[3-(4-Benzo[1,3]dioxol-5-ylmethyl-piperazin-1-yl)-propyl]-10,10a-dihydro-5H-imidazo[1,5-b]isoquinoline-1,3-dione] — 7.4-fold higher, 23.8 nM
- O=c1n(CCCN2CCN(Cc3ccccc3)CC2)c(O)c2n1Cc1ccccc1C2 [(S)-2-[3-(4-Benzyl-piperazin-1-yl)-propyl]-10,10a-dihydro-5H-imidazo[1,5-b]isoquinoline-1,3-dione] — 10-fold higher, 32 nM
- CN1CCN(CCCn2c(O)c3n(c2=O)Cc2ccccc2C3)CC1 [(S)-2-[3-(4-Methyl-piperazin-1-yl)-propyl]-10,10a-dihydro-5H-imidazo[1,5-b]isoquinoline-1,3-dione] — higher, > 100 nM
- O=c1n(CCCNCCCCc2ccccc2)c(O)c2n1Cc1ccccc1C2 [(S)-2-[3-(4-Phenyl-butylamino)-propyl]-10,10a-dihydro-5H-imidazo[1,5-b]isoquinoline-1,3-dione] — 3.3-fold higher, 10.5 nM
- CN(CCCn1c(O)c2n(c1=O)Cc1ccccc1C2)CCc1ccccc1 [(S)-2-[3-(Methyl-phenethyl-amino)-propyl]-10,10a-dihydro-5H-imidazo[1,5-b]isoquinoline-1,3-dione] — 1.5-fold lower, 2.1 nM
- CN(CCCn1c(O)c2n(c1=O)Cc1ccccc1C2)c1ccccc1 [(S)-2-[3-(Methyl-phenyl-amino)-propyl]-10,10a-dihydro-5H-imidazo[1,5-b]isoquinoline-1,3-dione] — higher, > 100 nM
- CN(CCCCn1c(O)c2n(c1=O)Cc1ccccc1C2)Cc1ccccc1 [(S)-2-[4-(Benzyl-methyl-amino)-butyl]-10,10a-dihydro-5H-imidazo[1,5-b]isoquinoline-1,3-dione] — within 1.5-fold, 4.2 nM
- CN(CCCCn1c(O)c2n(c1=O)Cc1ccccc1C2)CCc1ccccc1 [(S)-2-[4-(Methyl-phenethyl-amino)-butyl]-10,10a-dihydro-5H-imidazo[1,5-b]isoquinoline-1,3-dione] — 3.1-fold higher, 9.9 nM
- CN(CCCCCn1c(O)c2n(c1=O)Cc1ccccc1C2)Cc1ccccc1 [(S)-2-[5-(Benzyl-methyl-amino)-pentyl]-10,10a-dihydro-5H-imidazo[1,5-b]isoquinoline-1,3-dione] — 1.6-fold higher, 5 nM
- CN(CCCCCn1c(O)c2n(c1=O)Cc1ccccc1C2)CCc1ccccc1 [(S)-2-[5-(Methyl-phenethyl-amino)-pentyl]-10,10a-dihydro-5H-imidazo[1,5-b]isoquinoline-1,3-dione] — 3.7-fold higher, 11.7 nM
- CN(CCCCCCn1c(O)c2n(c1=O)Cc1ccccc1C2)Cc1ccccc1 [(S)-2-[6-(Benzyl-methyl-amino)-hexyl]-10,10a-dihydro-5H-imidazo[1,5-b]isoquinoline-1,3-dione] — 2.9-fold higher, 9.4 nM
- O=c1n(CCN2CCN(CCO)CC2)c(O)c2n1Cc1ccccc1C2 [(S)-2-{2-[4-(2-Hydroxy-ethyl)-piperazin-1-yl]-ethyl}-10,10a-dihydro-5H-imidazo[1,5-b]isoquinoline-1,3-dione] — higher, > 100 nM
- CN(C)CCCN1CCN(CCn2c(O)c3n(c2=O)Cc2ccccc2C3)CC1 [(S)-2-{2-[4-(3-Dimethylamino-propyl)-piperazin-1-yl]-ethyl}-10,10a-dihydro-5H-imidazo[1,5-b]isoquinoline-1,3-dione] — higher, > 1000 nM
- CN(CCCc1ccccc1)CCn1c(O)c2n(c1=O)Cc1ccccc1C2 [(S)-2-{2-[Methyl-(3-phenyl-propyl)-amino]-ethyl}-10,10a-dihydro-5H-imidazo[1,5-b]isoquinoline-1,3-dione] — 4.2-fold higher, 13.6 nM
- CN(CCCCCc1ccccc1)CCn1c(O)c2n(c1=O)Cc1ccccc1C2 [(S)-2-{2-[Methyl-(5-phenyl-pentyl)-amino]-ethyl}-10,10a-dihydro-5H-imidazo[1,5-b]isoquinoline-1,3-dione] — within 1.5-fold, 2.9 nM
- O=c1n(CCCN2CCN(CCO)CC2)c(O)c2n1Cc1ccccc1C2 [(S)-2-{3-[4-(2-Hydroxy-ethyl)-piperazin-1-yl]-propyl}-10,10a-dihydro-5H-imidazo[1,5-b]isoquinoline-1,3-dione] — higher, > 100 nM
- CN(C)CCCN1CCN(CCCn2c(O)c3n(c2=O)Cc2ccccc2C3)CC1 [(S)-2-{3-[4-(3-Dimethylamino-propyl)-piperazin-1-yl]-propyl}-10,10a-dihydro-5H-imidazo[1,5-b]isoquinoline-1,3-dione] — higher, > 100 nM
